Assay results as given in patent US11332440B2, “4-oxo-alkylated tetramic acid compound, and preparation method thereof” (priority 2017, dated 2022).
“Also recorded” adds a separate entry of the source. Read-outs that look alike come from different tables or passages of the source.

Columns and labels:
[1] = MTD experiment, dose gradient by gavage; format: in vivo; details: both sexes, mouse, in vivo, po, CR mice, by gavage, read-out: maximum tolerance (MTD)
Method: (§1) Mice are commonly used rodents to evaluate the toxicity of a test sample and are also an important part of early preclinical safety evaluation. In this experiment, the toxicity of compound 50561 was tested by administering a dose gradient thereof to the mice by gavage and observing its toxicity.
(§2) This experiment was designed such that for each dose centration, 10 mice were tested, including half males and half females. The males each weighed about 18-23 grams, and the females each weighed about 17-21 grams. They were randomly grouped by a simple randomization procedure. All the animals used in the experiment weighed between ±20% of the average body weight of their respective genders. If there are not enough animals in the study to meet the weight range required thereby, notify the responsible person of the project to take reasonable measures. Animals must be adapted to the laboratory for at least three days. During this period, daily cage observation was conducted once a day, and a detailed clinical observation was necessary before the experiment. Any animal with symptoms or physical abnormalities would be reported to the attending veterinarian and responsible person of the project, and excluded whenever possible. Animals suitable for experimentation will be assigned to respective experimental groups according to the random grouping method described above.
(§3) During the experiment, after administration, all animals were observed continuously for 4 hours; from the end of administration till 3 days thereafter, observations were carried out twice each day, one in the morning and the other in the afternoon; and then observation was carried out once a day. Observations included but were not limited to: skin, hair, eyes, ears, nose, mouth, chest, abdomen, external genitals, limbs, and feet. The respiratory and circulatory systems, autonomic effects (such as salivation), and nervous system (such as tremors, convulsions, stress responses, and abnormal behaviors) should be focused on. Complete anatomical examinations would be performed on all animals that had died, were dying, or planned to be euthanized. Animals found dead outside of fixed working hours could be placed in the refrigerator overnight and dissected immediately on the next working day. At the end of the experiment (14th day after administration), all animals requiring autopsy would be euthanized and autopsied.
(§4) External abnormalities in animals, such as palpable masses, should be examined in detail. The skin would be cut along the midline of the abdomen, and any subcutaneous mass would be confirmed in conjunction with the findings in the observations of animal symptoms. […] Diseased organs were removed, weighed, recoded, and kept in a fixative fluid.

[2] = test system: CR mice; experiment: MTD experiment, dose gradient by gavage; format: in vivo
Method: as §1, §2, §3, §4

[3] = test system: Salmonella typhimurium TA98; experiment: Mini Ames experiment, strain TA98; format: cell-based; details: TA98, regardless of the presence or absence of S9
Method: (§5) Histidine auxotrophic strains of Salmonella typhimurium were cultured in a special medium with quite a low content of histidine. The strains were difficult to divide due to lack of nutrition. If a test compound has mutagenicity, a large number of cells will undergo reverse mutation, synthesizing histidine by themselves and developing into colonies visible to the naked eye. In view of the close relationship between mutagenicity and carcinogenesis of chemicals, this method has been widely used in screening carcinogens. Some chemicals need metabolic activation to induce mutagenicity. Mammalian microsomal enzyme S9 can be added into the test system to eliminate the influence of metabolic activation on generation of mutagenicity.
(§6) […] Mini Ames test with compound 50561

[4] = test system: Salmonella typhimurium TA100; experiment: Mini Ames experiment, strain TA100; format: cell-based; details: TA100, regardless of the presence or absence of S9
Method: as §5, §6

In the case of `O=C1C=C(OCc2ccc(F)cc2)[C@H](Cc2ccccc2)N1` [Compound 50561], the MTD at 14 days ([1]; CR) is reported as under 500 mg/kg, the MTD at 14 days [1] is reported as at least 250 mg/kg and the Body weight decreased ([2]; 250 mg/kg by gavage) is reported as “Body weight decreased by about 2 g, which”. The Remarks ([2]; 250 mg/kg by gavage) was “in good condition”, the Body weight decreased ([2]; 500 mg/kg by gavage) was “Body weight decreased by about 2 g;” and the Remarks ([2]; 500 mg/kg by gavage) was “individual activity decreased; and the body”. The Remarks ([2]; 750 mg/kg by gavage) was “No abnormality of organs in dead individuals”, the Remarks ([2]; 1000 mg/kg by gavage) was “No abnormality of organs in dead individuals” and the “change in the number of colonies / mutagenicity” value [3] was “did not cause more than twice of a change in the number of colonies; also recorded: no obvious mutagenicity”. For the same compound, the “change in the number of colonies / mutagenicity” value [4] was “did not cause more than twice of a change in the number of colonies; also recorded: no obvious mutagenicity”.
